Assay results from patent US12723063B2, “GIPR-agonist compounds” (Eli Lilly and Company, priority 2019, dated 2026).
*1 amine or outer side, *2 acyl side, *3 side chain or, on linkers, in order; H or OH if unused. Where a SMILES comes first, the peptide text is derived from it. Side-chain parts run from the residue outwards. [ ]: non-standard residue; d: D form. The star is where a group is joined. C20 diacid = O=C(O)CCCCCCCCCCCCCCCCCCC(=O)*; γGlu = O=C(O)[C@H](CCC(=O)[*:2])N[*:1]; 4Pal = N[C@@H](Cc1ccncc1)C(=O)O; αMeL = CC(C)C[C@](C)(N)C(=O)O; Iva = CC[C@](C)(N)C(=O)O; Orn = NCCC[C@H](N)C(=O)O; AEEA = NCCOCCOCC(=O)O; Aib = CC(C)(N)C(=O)O

Columns and labels:
human GcgR = biological target: T1, human GcgR (Homo sapiens, UniProt P47871); experiment: [125I]-Glucagon binding, SPA with WGA beads, 0.1% bacitracin; settings: geometric mean, read-out: hGcgR Ki
T1 construct: expressed in transfected cells; crude membranes
In short: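 SPA competition binding with WGA beads on crude membranes from HEK293 cells stably expressing hGcgR. Buffer: 25 mM HEPES pH 7.4, 2.5 mM CaCl2, 1 mM MgCl2, 0.1% bacitracin, 0.003% Tween-20; 10-point 3-fold dilutions, NSB with 1 μM Gcg.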

human GLP-1R = biological target: T2, human GLP-1R (Homo sapiens, UniProt P43220); experiment: [125I]-GLP-1 binding, SPA with WGA beads, 0.1% bacitracin; settings: geometric mean, read-out: hGLP1R Ki
T2 construct: expressed in transfected cells; crude membranes
In short: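 Binding buffer was 25 mM HEPES pH 7.4 with 2.5 mM CaCl2, 1 mM MgCl2, 0.1% (w/v) bacitracin, 0.003% Tween-20 and EDTA-free protease inhibitors. Four-parameter regression gave IC50, converted to Ki (geometric mean, SEM, n independent days).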

T2 sequence (P43220 24-463): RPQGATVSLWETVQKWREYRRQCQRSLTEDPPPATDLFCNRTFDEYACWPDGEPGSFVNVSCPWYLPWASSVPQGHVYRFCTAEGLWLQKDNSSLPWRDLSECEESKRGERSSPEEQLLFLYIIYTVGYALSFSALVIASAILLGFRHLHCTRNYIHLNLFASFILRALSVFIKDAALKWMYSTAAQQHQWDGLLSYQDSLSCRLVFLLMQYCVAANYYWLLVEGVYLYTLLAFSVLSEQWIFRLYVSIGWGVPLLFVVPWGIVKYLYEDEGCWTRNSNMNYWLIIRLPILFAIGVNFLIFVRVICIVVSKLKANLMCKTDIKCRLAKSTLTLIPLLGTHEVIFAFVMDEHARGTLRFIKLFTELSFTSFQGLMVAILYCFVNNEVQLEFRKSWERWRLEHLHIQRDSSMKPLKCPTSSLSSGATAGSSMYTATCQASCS
T1 sequence (P47871 26-477): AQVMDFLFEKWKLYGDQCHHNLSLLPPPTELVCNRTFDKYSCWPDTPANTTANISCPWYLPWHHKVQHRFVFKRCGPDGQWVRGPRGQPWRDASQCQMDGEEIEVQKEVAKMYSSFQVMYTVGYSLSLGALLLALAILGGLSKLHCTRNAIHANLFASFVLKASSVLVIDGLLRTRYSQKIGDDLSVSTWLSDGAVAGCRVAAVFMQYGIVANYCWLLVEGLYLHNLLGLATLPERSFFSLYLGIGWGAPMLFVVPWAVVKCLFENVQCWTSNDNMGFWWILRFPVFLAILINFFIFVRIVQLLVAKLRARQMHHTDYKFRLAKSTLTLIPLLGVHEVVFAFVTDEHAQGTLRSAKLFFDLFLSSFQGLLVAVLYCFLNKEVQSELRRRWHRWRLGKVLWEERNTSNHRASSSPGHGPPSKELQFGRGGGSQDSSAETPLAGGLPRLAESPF

Compound	Ki (human GcgR)	Ki (human GLP-1R)
CC[C@H](C)[C@H](NC(=O)[C@H](CO)NC(=O)[C@H](Cc1ccc(O)cc1)NC(=O)[C@H](CC(=O)O)NC(=O)[C@H](CO)NC(=O)[C@@H](NC(=O)[C@](C)(CC)NC(=O)[C@@H](NC(=O)CNC(=O)[C@H](CCC(=O)O)NC(=O)C(C)(C)NC(=O)[C@@H](N)Cc1ccc(O)cc1)[C@@H](C)O)[C@@H](C)CC)C(=O)N[C@@](C)(CC(C)C)C(=O)N[C@@H](CC(C)C)C(=O)N[C@@H](CC(=O)O)C(=O)N[C@@H](CCCCN)C(=O)N[C@@H](CCCCNC(=O)COCCOCCNC(=O)COCCOCCNC(=O)CC[C@H](NC(=O)CCCCCCCCCCCCCCCCCCC(=O)O)C(=O)O)C(=O)N[C@@H](Cc1c[nH]cn1)C(=O)N[C@@H](CCC(N)=O)C(=O)NC(C)(C)C(=O)N[C@@H](CC(=O)O)C(=O)N[C@@H](Cc1ccccc1)C(=O)N[C@H](C(=O)N[C@@H](CCC(=O)O)C(=O)N[C@@H](Cc1ccncc1)C(=O)N[C@@H](CC(C)C)C(=O)N[C@@H](CC(C)C)C(=O)N[C@@H](CCC(=O)O)C(=O)N[C@H](C(=O)NCC(=O)N1CCC[C@H]1C(=O)N[C@@H](CO)C(=O)N[C@@H](CO)C(=O)NCC(=O)N[C@@H](C)C(=O)N1CCC[C@H]1C(=O)N1CCC[C@H]1C(=O)N1CCC[C@H]1C(=O)N[C@@H](CO)C(N)=O)[C@@H](C)O)C(C)C [Example 75] (H-Y[Aib]EGT[Iva]ISDYSI[αMeL]LDKK([AEEA-AEEA-γGlu-C20 diacid])HQ[Aib]DFVE[4Pal]LLETGPSSGAPPPS-NH2)	> 958 nM	> 902 nM
CC[C@H](C)[C@H](NC(=O)[C@H](CO)NC(=O)[C@H](Cc1ccc(O)cc1)NC(=O)[C@H](CC(=O)O)NC(=O)[C@H](CO)NC(=O)[C@@H](NC(=O)[C@](C)(CC)NC(=O)[C@@H](NC(=O)CNC(=O)[C@H](CCC(=O)O)NC(=O)C(C)(C)NC(=O)[C@@H](N)Cc1ccc(O)cc1)[C@@H](C)O)[C@@H](C)CC)C(=O)N[C@@](C)(CC(C)C)C(=O)N[C@@H](CC(C)C)C(=O)N[C@@H](CC(=O)O)C(=O)N[C@@H](CCCN)C(=O)N[C@@H](CCCCNC(=O)COCCOCCNC(=O)COCCOCCNC(=O)CC[C@H](NC(=O)CCCCCCCCCCCCCCCCCCC(=O)O)C(=O)O)C(=O)N[C@@H](Cc1c[nH]cn1)C(=O)N[C@@H](CCC(N)=O)C(=O)NC(C)(C)C(=O)N[C@@H](CC(=O)O)C(=O)N[C@@H](Cc1ccccc1)C(=O)N[C@H](C(=O)N[C@@H](CCC(=O)O)C(=O)N[C@@H](Cc1ccncc1)C(=O)N[C@@H](CC(C)C)C(=O)N[C@@H](CC(C)C)C(=O)N[C@@H](CCC(=O)O)C(=O)NCC(=O)NCC(=O)N1CCC[C@H]1C(=O)N[C@@H](CO)C(=O)N[C@@H](CO)C(=O)NCC(=O)N[C@@H](C)C(=O)N1CCC[C@H]1C(=O)N1CCC[C@H]1C(=O)N1CCC[C@H]1C(=O)N[C@@H](CO)C(N)=O)C(C)C [Example 76] (H-Y[Aib]EGT[Iva]ISDYSI[αMeL]LD[Orn]K([AEEA-AEEA-γGlu-C20 diacid])HQ[Aib]DFVE[4Pal]LLEGGPSSGAPPPS-NH2)	358 nM	263 nM
CC[C@H](C)[C@H](NC(=O)[C@H](CO)NC(=O)[C@H](Cc1ccc(O)cc1)NC(=O)[C@H](CC(=O)O)NC(=O)[C@H](CO)NC(=O)[C@@H](NC(=O)[C@](C)(CC)NC(=O)[C@@H](NC(=O)CNC(=O)[C@H](CCC(=O)O)NC(=O)C(C)(C)NC(=O)[C@@H](N)Cc1ccc(O)cc1)[C@@H](C)O)[C@@H](C)CC)C(=O)N[C@@](C)(CC(C)C)C(=O)N[C@@H](CC(C)C)C(=O)N[C@@H](CC(=O)O)C(=O)N[C@@H](CCCN)C(=O)N[C@@H](CCCCNC(=O)COCCOCCNC(=O)COCCOCCNC(=O)CC[C@H](NC(=O)CCCCCCCCCCCCCCCCCCC(=O)O)C(=O)O)C(=O)N[C@@H](Cc1c[nH]cn1)C(=O)N[C@@H](CCC(N)=O)C(=O)NC(C)(C)C(=O)N[C@@H](CC(=O)O)C(=O)N[C@@H](Cc1ccccc1)C(=O)N[C@H](C(=O)N[C@@H](CCC(=O)O)C(=O)N[C@@H](Cc1ccncc1)C(=O)N[C@@H](CC(C)C)C(=O)N[C@@H](CC(C)C)C(=O)N[C@@H](CCC(=O)O)C(=O)N[C@H](C(=O)NCC(=O)N1CCC[C@H]1C(=O)N[C@@H](CO)C(=O)N[C@@H](CO)C(=O)NCC(=O)N[C@@H](C)C(=O)N1CCC[C@H]1C(=O)N1CCC[C@H]1C(=O)N1CCC[C@H]1C(=O)N[C@@H](CO)C(N)=O)[C@@H](C)O)C(C)C [Example 77] (H-Y[Aib]EGT[Iva]ISDYSI[αMeL]LD[Orn]K([AEEA-AEEA-γGlu-C20 diacid])HQ[Aib]DFVE[4Pal]LLETGPSSGAPPPS-NH2)	> 958 nM	> 905 nM
CC[C@H](C)[C@H](NC(=O)[C@H](Cc1ccccc1)NC(=O)[C@@H](NC(=O)CNC(=O)[C@H](CCC(=O)O)NC(=O)C(C)(C)NC(=O)[C@@H](N)Cc1ccc(O)cc1)[C@@H](C)O)C(=O)N[C@@H](CO)C(=O)N[C@@H](CC(=O)O)C(=O)N[C@@H](Cc1ccc(O)cc1)C(=O)N[C@@H](CO)C(=O)N[C@H](C(=O)N[C@@](C)(CC(C)C)C(=O)N[C@@H](CC(C)C)C(=O)N[C@@H](CC(=O)O)C(=O)N[C@@H](CCCCN)C(=O)N[C@@H](CCCCNC(=O)COCCOCCNC(=O)COCCOCCNC(=O)CC[C@H](NC(=O)CCCCCCCCCCCCCCCCCCC(=O)O)C(=O)O)C(=O)N[C@@H](Cc1c[nH]cn1)C(=O)N[C@@H](CCC(N)=O)C(=O)NC(C)(C)C(=O)N[C@@H](CC(=O)O)C(=O)N[C@@H](Cc1ccccc1)C(=O)N[C@H](C(=O)N[C@@H](CCC(=O)O)C(=O)N[C@@H](Cc1ccncc1)C(=O)N[C@@H](CC(C)C)C(=O)N[C@@H](CC(C)C)C(=O)N[C@@H](C)C(=O)N[C@@H](C)C(=O)NCC(=O)N1CCC[C@H]1C(=O)N[C@@H](CO)C(=O)N[C@@H](CO)C(=O)NCC(=O)N[C@@H](C)C(=O)N1CCC[C@H]1C(=O)N1CCC[C@H]1C(=O)N1CCC[C@H]1C(=O)N[C@@H](CO)C(N)=O)C(C)C)[C@@H](C)CC [Example 78]	505 nM	394 nM
CC[C@H](C)[C@H](NC(=O)[C@H](Cc1ccccc1)NC(=O)[C@@H](NC(=O)CNC(=O)[C@H](CCC(=O)O)NC(=O)C(C)(C)NC(=O)[C@@H](N)Cc1ccc(O)cc1)[C@@H](C)O)C(=O)N[C@@H](CO)C(=O)N[C@@H](CC(=O)O)C(=O)N[C@@H](Cc1ccc(O)cc1)C(=O)N[C@@H](CO)C(=O)N[C@H](C(=O)N[C@@](C)(CC(C)C)C(=O)N[C@@H](CC(C)C)C(=O)N[C@@H](CC(=O)O)C(=O)N[C@@H](CCCCN)C(=O)N[C@@H](CCCCNC(=O)COCCOCCNC(=O)COCCOCCNC(=O)CC[C@H](NC(=O)CCCCCCCCCCCCCCCCCCC(=O)O)C(=O)O)C(=O)N[C@@H](Cc1c[nH]cn1)C(=O)N[C@@H](CCC(N)=O)C(=O)NC(C)(C)C(=O)N[C@@H](CC(=O)O)C(=O)N[C@@H](Cc1ccccc1)C(=O)N[C@H](C(=O)N[C@@H](CCC(=O)O)C(=O)N[C@@H](Cc1ccncc1)C(=O)N[C@@H](CC(C)C)C(=O)N[C@@H](CC(C)C)C(=O)N[C@@H](C)C(=O)N[C@@H](CCC(N)=O)C(=O)NCC(=O)N1CCC[C@H]1C(=O)N[C@@H](CO)C(=O)N[C@@H](CO)C(=O)NCC(=O)N[C@@H](C)C(=O)N1CCC[C@H]1C(=O)N1CCC[C@H]1C(=O)N1CCC[C@H]1C(=O)N[C@@H](CO)C(N)=O)C(C)C)[C@@H](C)CC [Example 79] (H-Y[Aib]EGTFISDYSI[αMeL]LDKK([AEEA-AEEA-γGlu-C20 diacid])HQ[Aib]DFVE[4Pal]LLAQGPSSGAPPPS-NH2)	888 nM	486 nM
